This test deals with Mycobacterium tuberculosis variant bovis BCG. In words: Antimycobacterial activity against Mycobacterium bovis BCG Pasteur ATCC 35734 assessed as cell survival at 5 uM after 1 hr followed by irradiation with light at 60 to 100 J/cm'2. Type of test: functional, organism-based.

Turning to VERTEPORFIN, the Survival came to 26%.

The values above are taken from ChEMBL document CHEMBL3822367, “Use of Photosensitizers in Semisolid Formulations for Microbial Photodynamic Inactivation” (2016).
